The text below walks through data of US20260184710A1, “CASITAS B-LINEAGE LYMPHOMA PROTOONCOGENE B (CBL-B) DEGRADING COMPOUNDS AND ASSOCIATED METHODS OF USE” (Arvinas Operations, Inc., priority 2022, published 2026).

In assay [1] the target is T1, Cbl-b (Homo sapiens, UniProt Q13191).
T1 construct: Cbl-b-HiBit KI Jurkat Cells were purchased from Promega; host or cells: Cbl-b-HiBiT knock-in Jurkat cells
Nature of the assay: Cbl-b Degradation Method A (FACS, anti-Cbl-b antibody staining). In kind it is cell-based. The note with it: Cbl-b-HiBit KI Jurkat Cells, incubated at least 20 hours; for DC50: half maximal degradation, read-out: Cbl-b Degredation Method A IC50; for Dmax: Jurkat, maximum degradation observed, read-out: Cbl-b Degredation Method A Dmax (%). Here is the method: Cbl-b Degradation Method A
Cbl-b-HiBit KI Jurkat Cells were purchased from Promega, and cell media consisted of RPMI 1640 with 10% FBS and 1% pen/strep. The cells were counted, measured for viability, and 100 μL of the cell solution was into 96 well flat bottom plates at a ratio of 290,000 cells per 100 μL. Compounds were dissolved in DMSO to make a 10 mM stock solution, which was diluted with cell media. 100 μL of the diluted compound mixture was added to the wells. The plate was incubated for at least 20 hours at 37° C. and 5% CO2. After incubation, the plate was shaken at 700-750 RMP for 15-30 minutes to ensure cells were removed from the wells. The wells were transferred to a 96-well v-bottom plate and spun for 2200 RPM for 3 minutes. The supernatant was removed, cells re-suspended in 100 μL of the fixative, and subsequently incubated at room temperature for 15 minutes. Afterwards, 150 μL of DPBS was added to each well, and the cells were centrifuged at 2500 RPM for 3 minutes. The supernatant was removed and the plate was chilled on ice for 2-3 minutes. While still on the ice, 100 μL of Perm III was added to each well, the wells mixed, and subsequently left on the ice for another 15 minutes. Afterwards, the plate was removed from the ice, 150 μL of DBPS was added to each well, and the cells centrifuged at 2700 RPM for 3 minutes. The supernatant was removed, and an additional 200 μL of was DPBS was added to each well, followed by centrifuging at 2700 RPM for 3 minutes, after which the supernatant was removed. The anti-Cbl-b antibody was diluted 1:200 in 1× Perm Wash buffer and 50 μL of the antibody mixture was added to each well and mixed. After addition, the plate was incubated for 35-45 minutes at room temperature. After incubation, 200 μL of DPBS was added to each wells, and the plate centrifuged at 2700 RPM for 3 minutes, followed by the removal of the supernatant. The washing step was repeated by adding 200 μL of DPBS to each wells followed by centrifuge at 2700 RPM for 3 minutes and removal of the supernatant. The a-Rabbit-AF488 antibody was diluted 1:1000 in Perm Wash buffer, 50 μL of the dilution added to each well, and mixed. After mixing, the plate was incubated for 30 minutes at room temperature in the dark. Subsequently, the supernatant was removed, and 200 μL of DBPS added to the cells, which were then centrifuged at 2900 RPM for 4 minutes. The supernatant was removed, and an additional 95 μL of DBPS was added to the wells and mixed. The cells were then transferred to a round bottom polypropylene plate and analyzed using FACS with the parameters below:
The concentration of an exemplary compound that leads to half maximal degradation (DC50) as well as the maximum degradation observed (Dmax, conventionally expressed as a percentage of control) is shown below in Table 2.
(With HiBiT, luminescence reflects the tagged protein that the partner subunit can reach.)

In assay [2] the target is T1, Cbl-b. Nature of the assay: Cbl-b Degradation Method B (Nano-Glo HiBiT lytic detection). The conditions noted are these: Cbl-b-HiBit KI Jurkat Cells, incubated at least 6-24 hours; for DC50: half maximal degradation, read-out: Cbl-b Degredation Method B IC50; for Dmax: maximum degradation observed, read-out: Cbl-b Degredation Method B Dmax (%). The assay is classed as cell-based. The gist of the method: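 Cbl-b-HiBiT knock-in Jurkat cells (20,000/well) were treated after ~24 h plating with an 11-point 1:3 series for 6-24 h at 37° C. Remaining Cbl-b measured by Nano-Glo HiBiT lytic luminescence. DC50 and Dmax expressed as % of control.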

T1 sequence (Q13191 whole entry): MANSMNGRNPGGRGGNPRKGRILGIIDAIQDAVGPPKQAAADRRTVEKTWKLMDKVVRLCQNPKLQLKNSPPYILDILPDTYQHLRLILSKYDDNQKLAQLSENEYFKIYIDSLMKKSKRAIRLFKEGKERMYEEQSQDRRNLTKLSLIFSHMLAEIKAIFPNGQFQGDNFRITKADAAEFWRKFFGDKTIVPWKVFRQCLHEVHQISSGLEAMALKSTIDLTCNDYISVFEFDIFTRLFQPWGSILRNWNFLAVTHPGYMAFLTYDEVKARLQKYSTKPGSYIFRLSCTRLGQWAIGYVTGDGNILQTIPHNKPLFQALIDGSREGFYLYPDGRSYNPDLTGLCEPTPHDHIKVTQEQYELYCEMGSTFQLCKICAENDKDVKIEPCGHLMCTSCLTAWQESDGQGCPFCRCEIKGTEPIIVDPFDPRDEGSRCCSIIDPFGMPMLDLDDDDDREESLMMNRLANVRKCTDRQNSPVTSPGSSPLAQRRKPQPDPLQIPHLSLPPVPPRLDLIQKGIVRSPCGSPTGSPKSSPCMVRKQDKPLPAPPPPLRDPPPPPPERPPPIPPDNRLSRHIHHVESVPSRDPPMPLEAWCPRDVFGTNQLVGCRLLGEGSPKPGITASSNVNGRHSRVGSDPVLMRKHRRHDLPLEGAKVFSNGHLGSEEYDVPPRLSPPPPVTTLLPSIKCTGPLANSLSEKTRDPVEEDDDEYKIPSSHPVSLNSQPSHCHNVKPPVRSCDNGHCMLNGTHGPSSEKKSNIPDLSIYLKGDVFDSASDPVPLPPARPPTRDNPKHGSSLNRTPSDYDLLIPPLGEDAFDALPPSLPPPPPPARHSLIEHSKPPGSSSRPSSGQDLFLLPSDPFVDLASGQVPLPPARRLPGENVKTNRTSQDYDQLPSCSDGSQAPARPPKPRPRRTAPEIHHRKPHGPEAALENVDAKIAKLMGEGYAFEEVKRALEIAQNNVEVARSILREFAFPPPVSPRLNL

By Dmax is commonly meant the greatest extent of degradation seen. `CC1c2nc(N3CCC(O[C@H]4CC[C@H](CN5CCN(Cc6cc7c(c(C(F)(F)F)c6)CN(c6cccc(C8(Cc9nncn9C)CCC8)c6)C7=O)CC5)CC4)CC3)ccc2C(=O)N1C1CCC(=O)NC1=O` (mixture of isomers) [Example 232, rac-3-[7-methyl-5-oxo-2-(4-{[(1r,4r)-4-[(4-{[2-(3-{1-[(4-methyl-4H-1,2,4-triazol-3-yl)methyl]cyclobutyl}phenyl)-3-oxo-7-(trifluoromethyl)-2,3-dihydro-1H-isoindol-5-yl]methyl}piperazin-1-yl)methyl]cyclohexyl]oxy}piperidin-1-yl)-5H,6H,7H-pyrrolo[3,4-b]pyridin-6-yl]piperidine-2,6-dione]: at Cbl-b [1], the DC50 lay within 5 to 50 nM and the greatest degradation seen (Dmax) was > 70%. Further, at Cbl-b [2], the DC50 is < 5 nM and the Dmax fell in the range of 35 to 70%.
For `CC1c2nc(N3CCC(O[C@H]4CC[C@H](CN5CCN(Cc6cc7c(c(C(F)(F)F)c6)CN(c6cccc(C8(Cc9nncn9C)CC8)c6)C7=O)CC5)CC4)CC3)ccc2C(=O)N1C1CCC(=O)NC1=O` (mixture of isomers) [Example 234, rac-3-[7-methyl-5-oxo-2-(4-{[(1r,4r)-4-[(4-{[2-(3-{1-[(4-methyl-4H-1,2,4-triazol-3-yl)methyl]cyclopropyl}phenyl)-3-oxo-7-(trifluoromethyl)-2,3-dihydro-1H-isoindol-5-yl]methyl}piperazin-1-yl)methyl]cyclohexyl]oxy}piperidin-1-yl)-5H,6H,7H-pyrrolo[3,4-b]pyridin-6-yl]piperidine-2,6-dione] the same measures were 5 to 50 nM, 35 to 70%, < 5 nM and 35 to 70%.
With `Cn1cnnc1CC1(c2cccc(N3Cc4c(cc(N5CC(CC6CN(c7ccc8c(c7)C(=O)N(C7CCC(=O)NC7=O)C8=O)C6)C5)cc4C(F)(F)F)C3=O)c2)COC1` (stereo not drawn) [Example 120, 2-(2,6-dioxopiperidin-3-yl)-5-[3-({1-[2-(3-{3-[(4-methyl-4H-1,2,4-triazol-3-yl)methyl]oxetan-3-yl}phenyl)-3-oxo-7-(trifluoromethyl)-2,3-dihydro-1H-isoindol-5-yl]azetidin-3-yl}methyl)azetidin-1-yl]-2,3-dihydro-1H-isoindole-1,3-dione], at Cbl-b [1], the DC50 lay within 5 to 50 nM and the Dmax was in the range of 35 to 70%.
The like results for `Cn1cnnc1CC1(c2cccc(N3Cc4c(cc(N5CC(CC6CCN(c7ccc8c(c7)C(=O)N(C7CCC(=O)NC7=O)C8=O)CC6)C5)cc4C(F)(F)F)C3=O)c2)COC1` (stereo not drawn) [Example 133, 2-(2,6-dioxopiperidin-3-yl)-5-[4-({1-[2-(3-{3-[(4-methyl-4H-1,2,4-triazol-3-yl)methyl]oxetan-3-yl}phenyl)-3-oxo-7-(trifluoromethyl)-2,3-dihydro-1H-isoindol-5-yl]azetidin-3-yl}methyl)piperidin-1-yl]-2,3-dihydro-1H-isoindole-1,3-dione] were, in that order, 5 to 50 nM and > 70%.
Take `Cn1cnnc1CC1(c2cccc(N3Cc4c(cc(N5CC6(CCN(C[C@H]7CC[C@H](OC8CCN(c9ccc%10c(c9Cl)CN(C9CCC(=O)NC9=O)C%10=O)CC8)CC7)CC6)C5)cc4C(F)(F)F)C3=O)c2)COC1` (stereo partly drawn) [Example 184, 3-[4-chloro-1-oxo-5-(4-{[(1r,4r)-4-({2-[2-(3-{3-[(4-methyl-4H-1,2,4-triazol-3-yl)methyl]oxetan-3-yl}phenyl)-3-oxo-7-(trifluoromethyl)-2,3-dihydro-1H-isoindol-5-yl]-2,7-diazaspiro[3.5]nonan-7-yl}methyl)cyclohexyl]oxy}piperidin-1-yl)-2,3-dihydro-1H-isoindol-2-yl]piperidine-2,6-dione]: on Cbl-b [1], the DC50 was < 5 nM and the Dmax was > 70%.
The like results for `Cc1cc(N2CCC(O[C@H]3CC[C@H](CN4CCC5(CC4)CN(c4cc6c(c(C(F)(F)F)c4)CN(c4cccc([C@]7(Cc8nncn8C)C[C@@H](C#N)C7)c4)C6=O)C5)CC3)CC2)c(F)c2c1C(=O)N(C1CCC(=O)NC1=O)C2` (stereo partly drawn) [Example 187, (1r,3r)-3-[(4-methyl-4H-1,2,4-triazol-3-yl)methyl]-3-{3-[1-oxo-6-(7-{[(1r,4r)-4-({1-[2-(2,6-dioxopiperidin-3-yl)-4-fluoro-7-methyl-1-oxo-2,3-dihydro-1H-isoindol-5-yl]piperidin-4-yl}oxy)cyclohexyl]methyl}-2,7-diazaspiro[3.5]nonan-2-yl)-4-(trifluoromethyl)-2,3-dihydro-1H-isoindol-2-yl]phenyl}cyclobutane-1-carbonitrile] were, in that order, 5 to 50 nM and 35 to 70%.
`Cc1cc(N2CCC(CN3CC4(C3)CN(C3=CC5C(=O)N(c6cccc([C@]7(Cc8nncn8C)C[C@@H](C#N)C7)c6)CC5C(C(F)(F)F)=C3)C4)CC2)c(F)c2c1C(=O)N(C1CCC(=O)NC1=O)C2` (stereo partly drawn) [Example 189, (1r,3r)-3-(3-{6-[6-({1-[2-(2,6-dioxopiperidin-3-yl)-4-fluoro-7-methyl-1-oxo-2,3-dihydro-1H-isoindol-5-yl]piperidin-4-yl}methyl)-2,6-diazaspiro[3.3]heptan-2-yl]-1-oxo-4-(trifluoromethyl)-2,3,3a,7a-tetrahydro-1H-isoindol-2-yl}phenyl)-3-[(4-methyl-4H-1,2,4-triazol-3-yl)methyl]cyclobutane-1-carbonitrile]: on Cbl-b [1], the DC50 lay in the range of 5 to 50 nM and the greatest degradation seen (Dmax) was 35 to 70%.
The like results for `Cc1cc(N2CCC(CN3CCC4(CC3)CN(c3cc5c(c(C(F)(F)F)c3)CN(c3cccc(C6(Cc7nncn7C)CCC6)c3)C5=O)C4)CC2)c(F)c2c1C(=O)N(C1CCC(=O)NC1=O)C2` (stereo not drawn) [Example 190, 3-{4-fluoro-7-methyl-5-[4-({2-[2-(3-{1-[(4-methyl-4H-1,2,4-triazol-3-yl)methyl]cyclobutyl}phenyl)-3-oxo-7-(trifluoromethyl)-2,3-dihydro-1H-isoindol-5-yl]-2,7-diazaspiro[3.5]nonan-7-yl}methyl)piperidin-1-yl]-1-oxo-2,3-dihydro-1H-isoindol-2-yl}piperidine-2,6-dione] were, in that order, 5 to 50 nM and > 70%.
For `Cc1cc(N2CCC(O[C@H]3CC[C@H](CN4CCN(Cc5cc6c(c(C(F)(F)F)c5)CN(c5cccc([C@]7(Cc8nncn8C)C[C@@H](C#N)C7)c5)C6=O)CC4)CC3)CC2)c(F)c2c1C(=O)N(C1CCC(=O)NC1=O)C2` (stereo partly drawn) [Example 205, (1r,3r)-3-[(4-methyl-4H-1,2,4-triazol-3-yl)methyl]-3-(3-{1-oxo-6-[(4-{[(1r,4r)-4-({1-[2-(2,6-dioxopiperidin-3-yl)-4-fluoro-7-methyl-1-oxo-2,3-dihydro-1H-isoindol-5-yl]piperidin-4-yl}oxy)cyclohexyl]methyl}piperazin-1-yl)methyl]-4-(trifluoromethyl)-2,3-dihydro-1H-isoindol-2-yl}phenyl)cyclobutane-1-carbonitrile] the same measures were < 5 nM and 35 to 70%.
With `Cc1cc(N2CCC(O[C@H]3CC[C@H](CN4CCN(Cc5cc6c(c(C(F)(F)F)c5)CN(c5cccc(C7(Cc8nncn8C)CCC7)c5)C6=O)C(C)(C)C4)CC3)CC2)c(F)c2c1C(=O)N(C1CCC(=O)NC1=O)C2` (stereo partly drawn) [Example 224, 3-[4-fluoro-7-methyl-1-oxo-5-(4-{[(1r,4r)-4-[(3,3-dimethyl-4-{[2-(3-{1-[(4-methyl-4H-1,2,4-triazol-3-yl)methyl]cyclobutyl}phenyl)-3-oxo-7-(trifluoromethyl)-2,3-dihydro-1H-isoindol-5-yl]methyl}piperazin-1-yl)methyl]cyclohexyl]oxy}piperidin-1-yl)-2,3-dihydro-1H-isoindol-2-yl]piperidine-2,6-dione], on Cbl-b [1], the DC50 lay within 5 to 50 nM and the Dmax was > 70%.
